From patent publication US20240294551A1 (AMGEN INC., priority 2022, published 2024) come the findings set out here.

The target in experiment [1] is His-tagged KRAS G12D protein (Homo sapiens (Human), UniProt P01116, G12D). The experiment can be described thus: KRAS G12D TR-FRET Assay. Particulars: read-out: KRAS G12D Binding IC50. The experiment is classed as binding. The procedure: Compounds of interest were prepared in a dose-response titration in DMSO, and 80 nL were added via Labcyte Echo to each well of a 384-well plate (Perkin Elmer 6008280). The His-tagged KRAS G12D protein (Amgen) was diluted to 20 nM in Assay Buffer (20 mM HEPES, pH 7.4, 10 mM MgCl2, 50 mM NaCl, 0.1% BSA, 0.01% Tween-20, 10 μM GDP) and 2 μL was added to the appropriate wells of the 384-well plate. The plate was incubated for 30 minutes at room temperature. Biotinylated KRPep-2d substrate (Amgen) was diluted to 20 nM in Assay Buffer and 2 μL was added to all wells and incubated for 1 hour at room temperature. Detection Reagent (0.4 nM LANCE Eu-W1024 Anti-6×His (Perkin Elmer AD0401), 5 nM streptavidin-d2 (Cisbio 610SADLA)) was prepared in Assay Buffer, then 4 μL was added to the plate and incubated for 1 hour at room temperature. Plates were read using PerkinElmer EnVision (ex: 320 nm, em1: 665 nm, em2: 615 nm) and em1/em2 data was used to generate curve fits using a 4-parameter logistic model to calculate IC50 values.

The target of experiment [2] is GDP-bound KRAS protein (aa 1-169), containing both G12D and C118A amino acid substitutions (Homo sapiens (Human), UniProt P01116, C118A/G12D). The experiment can be described thus: KRAS G12D Coupled Nucleotide Exchange Assay. The experiment is classed as biochemical. To be noted: read-out: KRAS G12D Coupled Exchange IC50. The method, then:
KRAS G12D Coupled Nucleotide Exchange Assay
Following compound pre-incubation, purified SOS protein (aa 564-1049) and GTP (Roche 10106399001) were added to the assay wells and incubated for an additional 30 min. To determine the extent of inhibition of SOS-mediated nucleotide exchange, purified GST-tagged cRAF (aa 1-149), nickel chelate AlphaLISA acceptor beads (PerkinElmer AL108R), and AlphaScreen glutathione donor beads (PerkinElmer 6765302) were added to the assay wells and incubated for 10 minutes. The assay plates were then read on a PerkinElmer EnVision Multilabel Reader, using AlphaScreen® technology, and data were analyzed using a 4-parameter logistic model to calculate IC50 values.

The structures appear in SMILES notation. Structures can show the parent of a compound that is named as a salt.

Chain of GDP-bound KRAS protein (aa 1-169), containing both G12D and C118A amino acid substitutions (P01116 other isoform, or with tags, fused parts or gaps G12D/C118A): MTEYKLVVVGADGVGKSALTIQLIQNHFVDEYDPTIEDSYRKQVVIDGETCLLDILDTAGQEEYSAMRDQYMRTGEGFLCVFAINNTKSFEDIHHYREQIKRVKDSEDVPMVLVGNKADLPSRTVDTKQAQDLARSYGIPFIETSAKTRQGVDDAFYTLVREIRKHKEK
Chain of His-tagged KRAS G12D protein (P01116 other isoform, or with tags, fused parts or gaps G12D): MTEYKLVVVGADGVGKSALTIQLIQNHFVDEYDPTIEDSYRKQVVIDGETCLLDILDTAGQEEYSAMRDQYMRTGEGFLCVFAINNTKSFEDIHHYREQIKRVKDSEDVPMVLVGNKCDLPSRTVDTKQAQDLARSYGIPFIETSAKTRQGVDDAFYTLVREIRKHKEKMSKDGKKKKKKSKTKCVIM

Broadly, the IC50 is the concentration that inhibits the measured activity by half. As for `Cc1c2ncc3c(nc(OCC45CCC(CC4)O5)nc13)N1CCC[C@](C)(C1)NC(=O)CCCc1c(F)ccc3cc(O)cc-2c13` [Example 23, (15R)-22-Fluoro-27-hydroxy-15,31-dimethyl-8-((1r,4r)-7-oxabicyclo[2.2.1]heptan-1-ylmethoxy)-3,7,9,11,16-pentaazahexacyclo[19.7.1.1˜2,6˜.1˜11,15˜.0˜5,10˜.0˜25,29˜]hentriaconta-1(28),2(31),3,5,7,9,21,23,25(29),26-decaen-17-one], the IC50 in experiment [1] stood at 0.16 µM; in experiment [2], 0.111 µM.

On to `Cc1c2ncc3c(nc(OC[C@]45CC[C@@H](CC4)C(=O)N5)nc13)N1CCC[C@](C)(C1)NC(=O)CCCc1c(F)ccc3cc(O)cc-2c13` [Example 25, (15R)-22-Fluoro-27-hydroxy-15,31-dimethyl-8-(((1s,4s)-3-oxo-2-azabicyclo[2.2.2]octan-1-yl)methoxy)-3,7,9,11,16-pentaazahexacyclo[19.7.1.1˜2,6˜.1˜11,15˜.0˜5,10˜.0˜25,29˜]hentriaconta-1(28),2(31),3,5,7,9,21,23,25(29),26-decaen-17-one], for which the values for the IC50 in experiment [1] and in experiment [2] were 0.01 µM and 0.007 µM, respectively.

Consider `Cc1c2ncc3c(nc(OCC(C)(C)O)nc13)N1CCC[C@](C)(C1)NC(=O)CCCc1c(F)ccc3cc(O)cc-2c13` [Example 26, (15R)-22-Fluoro-27-hydroxy-8-(2-hydroxy-2-methylpropoxy)-15,31-dimethyl-3,7,9,11,16-pentaazahexacyclo[19.7.1.1˜2,6˜.1˜11,15˜.0˜5,10˜.0˜25,29˜]hentriaconta-1(28),2(31),3,5,7,9,21,23,25(29),26-decaen-17-one], for which the IC50 in experiment [1] turned out to be 0.124 µM; in experiment [2], 0.109 µM.

Turning to `C[C@@]12CCCN(C1)c1nc(OC[C@@]34CCCN3C[C@H](F)C4)nc3c(F)c(ncc13)-c1cc(O)cc3c1[C@H](CCCC(=O)N2)CCC3` [Example 28, (15R,21S)-31-fluoro-8-(((2R,7aS)-2-fluorotetrahydro-1H-pyrrolo[1,2-a]pyrrol-7a(5H)-yl)methoxy)-27-hydroxy-15-methyl-3,7,9,11,16-pentaazahexacyclo[19.7.1.1˜2,6˜.1˜11,15˜.0˜5,10˜.0˜25,29˜]hentriaconta-1(29),2(31),3,5,7,9,25,27-octaen-17-one 2,2,2-trifluoroacetate salt], the concentration for half-maximal inhibition (IC50) in experiment [1] came to 0.068 µM; in experiment [2], 0.048 µM.

Take `O=C1CCCc2cccc3cccc(c23)-c2ncc3c(nc(OC[C@@]45CCCN4C[C@H](F)C5)nc3c2F)N2CCC[C@H](C2)O1` [Example 29, (15R)-31-Fluoro-8-(((2R,7aS)-2-fluorotetrahydro-1H-pyrrolo[1,2-a]pyrrol-7a(5H)-yl)methoxy)-16-oxa-3,7,9,11-tetraazahexacyclo[19.7.1.1˜2,6˜.1˜11,15˜.0˜5,10˜.0˜25,29˜]hentriaconta-1(28),2(31),3,5,7,9,21,23,25(29),26-decaen-17-one bis(2,2,2-trifluoroacetate)]: the half-inhibitory concentration (IC50) came to 0.443 µM in experiment [1] and 0.513 µM in experiment [2].

Regarding `Cc1cc2[nH]ncc2c2c1CCCCCC(=O)O[C@@H]1CCCN(C1)c1nc(OC[C@@]34CCCN3C[C@H](F)C4)nc3c(F)c-2ncc13` [Example 34, (18R)-31-fluoro-25-(((2R,7aS)-2-fluorotetrahydro-1H-pyrrolo[1,2-a]pyrrol-7a(5H)-yl)methoxy)-9-methyl-17-oxa-5,6,22,24,26,30-hexaazahexacyclo[25.3.1.1~18,22~.0~2,10~.0~3,7~.0~23,28~]dotriaconta-1(31),2,4,7,9,23,25,27,29-nonaen-16-one], the results for the IC50 in experiment [1] and in experiment [2] were 0.22 µM and 0.177 µM, respectively.

For `O=C1OC[C@H]2C[C@H]2c2c(Cl)cc3[nH]ncc3c2-c2ncc3c(nc(OC[C@@]45CCCN4C[C@H](F)C5)nc3c2F)N2CCC[C@H](C2)O1` [Example 46, (11R,13S,18R)-9-chloro-31-fluoro-25-(((2R,7aS)-2-fluorotetrahydro-1H-pyrrolo[1,2-a]pyrrol-7a(5H)-yl)methoxy)-15,17-dioxa-5,6,22,24,26,30-hexaazaheptacyclo[25.3.1.1˜18,22˜.0˜2,10˜.0˜3,7˜.0˜11,13˜.0˜23,28˜]dotriaconta-1(31),2,4,7,9,23,25,27,29-nonaen-16-one bis(2,2,2-trifluoroacetate)], the IC50 in experiment [1] was 0.012 µM; in experiment [2], 0.01 µM.

As for `O=C1CCCCc2c(Cl)cccc2-c2ncc3c(nc(OC[C@@]45CCCN4C[C@H](F)C5)nc3c2F)N2CCC[C@H](C2)N1` [Example 59, (23R)-15-chloro-28-fluoro-4-(((2R,7aS)-2-fluorotetrahydro-1H-pyrrolo[1,2-a]pyrrol-7a(5H)-yl)methoxy)-1,3,5,9,22-pentaazapentacyclo[21.3.1.1~6,10~.0~2,7~.0~11,16~]octacosa-2,4,6,8,10(28),11,13,15-octaen-21-one], the 50% inhibitory concentration (IC50) in experiment [1] was found to be 0.651 µM; in experiment [2], 0.481 µM.

Turning to `O=C1CCCc2c(F)ccc3cccc(c23)-c2ncc3c(nc(OC[C@@]45CCCN4C[C@H](F)C5)nc3c2F)N2CCOC[C@H](C2)N1` [Example 70, (16S)-23,32-difluoro-8-(((2R,7aS)-2-fluorotetrahydro-1H-pyrrolo[1,2-a]pyrrol-7a(5H)-yl)methoxy)-14-oxa-3,7,9,11,17-pentaazahexacyclo[20.7.1.1~2,6~.1~11,16~.0~5,10~.0~26,30~]dotriaconta-1(29),2(32),3,5,7,9,22,24,26(30),27-decaen-18-one], the IC50 in experiment [1] was determined as 0.277 µM; in experiment [2], 0.274 µM.

Consider `O=C1CCCc2c(F)ccc3cccc(c23)-c2ncc3c(nc(OC[C@@]45CCCN4C[C@H](F)C5)nc3c2F)N2CC[C@@H]3CCN1[C@@H]3C2` [Example 71, (27R,31S)-18,33-Difluoro-4-(((2R,7aS)-2-fluorotetrahydro-1H-pyrrolo[1,2-a]pyrrol-7a(5H)-yl)methoxy)-1,3,5,9,24 pentaazaheptacyclo[22.5.2.1˜6,10˜.1˜11,15˜.0˜2,7˜.0˜19,32˜.0˜27,31˜]tritriaconta-2,4,6,8,10(33),11,13,15(32),16,18-decaen-23-one], for which the half-maximal inhibitory concentration (IC50) in experiment [1] came to 0.306 µM; in experiment [2] it was 0.119 µM.

Take `C[C@]12CCCN(C1)c1nc(OC[C@@]34CCCN3C[C@H](F)C4)nc3c(F)c(ncc13)-c1cccc3ccc(F)c(c13)CCOC(=O)N2` [Example 78, (15S)-22,31-difluoro-8-(((2R,7aS)-2-fluorotetrahydro-1H-pyrrolo[1,2-a]pyrrol-7a(5H)-yl)methoxy)-15-methyl-18-oxa-3,7,9,11,16-pentaazahexacyclo[19.7.1.1~2,6~.1~11,15~.0~5,10~.0~25,29~]hentriaconta-1(29),2(31),3,5,7,9,21,23,25,27-decaen-17-one]: the 50% inhibitory concentration (IC50) turned out to be 3.81 µM in experiment [1] and 2.1 µM in experiment [2].

In the case of `O=C1CCCc2c(F)ccc3cccc(c23)-c2ncc3c(nc(OC[C@@]45CCCN4C[C@H](F)C5)nc3c2F)N2CCOC[C@H](C2)O1` [Example 109], the figures for the IC50 in experiment [1] and in experiment [2] were 0.18 µM and 0.196 µM, respectively.

In the case of `C[C@@]12CCCN(C1)c1nc(OC[C@@]34CCCN3C[C@H](F)C4)nc3c(F)c(ncc13)-c1cccc3cccc(c13)CCCOC(=O)O2` [Example 121], the values for the IC50 in experiment [1] and in experiment [2] were 0.508 µM and 0.422 µM, respectively.

As to `Cc1cc2[nH]ncc2c2c1CCCCCO[C@@H]1CCCN(C1)c1nc(OC[C@@]34CCCN3C[C@H](F)C4)nc3c(F)c-2ncc13` [Example 132], the half-maximal inhibitory concentration (IC50) in experiment [1] was 0.07 µM; in experiment [2], 0.067 µM.

For the compound `Cc1cc2[nH]ncc2c2c1CC/C=C\CO[C@@H]1CCCN(C1)c1nc(OC[C@@]34CCCN3C[C@H](F)C4)nc3c(F)c-2ncc13` [Example 133], the IC50 in experiment [1] turned out to be 0.241 µM; in experiment [2] it was 0.24 µM.

In the case of `Cc1cc2[nH]ncc2c2c1CC/C=C/CO[C@@H]1CCCN(C1)c1nc(OC[C@@]34CCCN3C[C@H](F)C4)nc3c(F)c-2ncc13` [Example 134], the results for the IC50 in experiment [1] and in experiment [2] were 0.056 µM and 0.059 µM, respectively.

`Fc1c2ncc3c(nc(OC[C@@]45CCCN4C[C@H](F)C5)nc13)N1CCC[C@H](C1)Cn1cc(nn1)CCc1c(Cl)cc3[nH]ncc3c1-2` [Example 146]: the half-inhibitory concentration (IC50) in experiment [1] turned out to be 0.077 µM; in experiment [2], 0.065 µM.

For the compound `Fc1c2ncc3c(nc(OC[C@@]45CCCN4C[C@H](F)C5)nc13)N1CCO[C@@H](COCCOCc3c(Cl)cc4[nH]ncc4c3-2)C1` [Example 152, (17R)-9-chloro-30-fluoro-24-(((2R,7aS)-2-fluorotetrahydro-1H-pyrrolo[1,2-a]pyrrol-7a(5H)-yl)methoxy)-12,15,18-trioxa-5,6,21,23,25,29 hexaazahexacyclo[24.3.1.1~17,21~.0~2,10~.0~3,7~.0~22,27~]hentriaconta-1(30),2,4,7,9,22,24,26,28-nonaene], the 50% inhibitory concentration (IC50) stood at 0.071 µM in experiment [1] and 0.056 µM in experiment [2].
